Assay results reported in US20040110821A1, “GAL3 receptor antagonists for the treatment of affective disorders” (priority 2002, published 2004).

What was measured:
[1] = target: T1, Monoamine Oxidase A (central) (Rattus norvegicus, UniProt P21396); test: Central Monoamine Oxidase A Enzyme Assay; format: biochemical; details: rat brain as enzyme source
T1 construct: Rat brain was used as the enzyme source; tissue NovaScreen (Hanover, Md.) performed the assay; host or cells: rat brain
Procedure: The methods to determine activity at monoamine oxidase enzymes (for example, central MAOA and MAOB) are described by Otsuka and Kobayashi, 1964, and were performed by NovaScreen (Hanover, Md.) with the following modifications.
Central Monoamine Oxidase A Enzyme Assay: Rat brain was used as the enzyme source. The enzyme source was pre-incubated with reference compound (RO 41-1049), test compound (Example 92), and subtype selective blocker (100 nM deprenyl) for 60 minutes at 37° C. in 50 mM KPO4 containing 50 μM EDTA and 10 μM dithiothreitol (pH 7.2 at 25° C.). Substrate ([^14C]Serotonin, […]) was then added and incubated for 30 minutes. The reaction was stopped by the addition of 0.5 ml of 1-2M citric acid. Radioactive product was extracted into xylene/ethyl acetate fluor and compared to control values by scintillation spectrophotometry in order to ascertain any interactions of test compound with central MAOA.
(§1) Binding data were analyzed using nonlinear regression and statistical techniques available in the GraphPAD Prism package (San Diego, Calif.). Enzymatic assay data were derived from a standard curve of reference compound data.

human 5HT1D receptor = target: T2, human 5HT1D receptor (Homo sapiens, UniProt P28221); test: Radioligand binding at human 5HT1D receptor; details: read-out: h5HT1D Ki
T2 construct: expressed in transfected cells
Procedure: Human 5HT1B, 5HT1D, 5HT1E, 5HT1F, and 5HT7 ReceDtors: The cell lysates of LM(tk-) clonal cell line stably transfected with the genes encoding each of these 5HT receptor-subtypes were prepared as described above. Cell membranes were suspended in 50 mM Tris-HCl buffer (pH 7.4 at 37° C.) containing 10 mM MgCl2, 0.2 mM EDTA, 10 µM pargyline, and 0.1% ascorbate. […] Nonspecific binding was determined in the presence of 10 μM serotonin. The bound radioligand was separated by filtration through GF/B filters using a cell harvester.
as §1

DA transporter = target: T3, DA transporter (Rattus norvegicus, UniProt P23977); test: Binding at native DA transporter; details: read-out: rDA Uptk Ki
T3 construct: native, tissue-derived transporters; from tissue
Procedure: The methods to determine binding affinity at native transporters are described in the following publications: 5HT transporter and NE transporter (Owens et al., 1997), and DA transporter (Javitch et al, 1984).
as §1

[2] = target: T4, human α1B adrenergic receptor (Homo sapiens, UniProt P35368); test: Binding at human α1B adrenergic receptor; details: read-out: hα1B Ki
T4 construct: expressed in transfected cells
From the text: (§2) Other receptors: Cell membranes expressing human dopamine D1, D2, D4 and rat D3 receptors were purchased through BioSignal, Inc. (Montreal, Canada). Binding assays using the histamine H1 receptor; dopamine receptors; and α1A, α1B, and α2 adrenergic receptors may be carried out according to the procedures described in U.S. Pat. No. 5,780,485, the disclosure of which is hereby incorporated by reference in its entirety into this application. Binding assays using the dopamine D5 receptor may be carried out according to the procedures described in U.S. Pat. No. 5,882,855, the disclosure of which is hereby incorporated by reference in its entirety into this application. Binding assays for the human α1D adrenergic receptor may be carried out according to the procedures described in U.S. Pat. No. 6,156,518, the disclosure of which is hereby incorporated by reference in its entirety into this application.
as §1

[3] = target: T5, human α1D adrenergic receptor (Homo sapiens, UniProt P25100); test: Binding at human α1D adrenergic receptor; details: read-out: hα1D Ki
T5 construct: expressed in transfected cells
From the text: as §2, §1

[4] = target: T6, human α2C adrenergic receptor (Homo sapiens, UniProt P18825); test: Binding at human α2C adrenergic receptor; details: read-out: hα2C Ki
T6 construct: expressed in transfected cells
From the text: as §2, §1

[5] = target: T7, human dopamine D1 receptor (Homo sapiens, UniProt P21728); test: Binding at human dopamine D1 receptor; details: read-out: hD1 Ki
T7 construct: purchased BioSignal, Inc. (Montreal, Canada)
From the text: as §2, §1

[6] = target: T8, human dopamine D4 receptor (Homo sapiens, UniProt P21917); test: Binding at human dopamine D4 receptor; details: read-out: hD4 Ki
T8 construct: purchased BioSignal, Inc. (Montreal, Canada)
From the text: as §2, §1

[7] = target: T9, human dopamine D5 receptor (Homo sapiens, UniProt P21918); test: Binding at dopamine D5 receptor; details: read-out: hD5 Ki
T9 construct: expressed in transfected cells
From the text: as §2, §1

[8] = target: T10, human H1 histamine receptor (Homo sapiens, UniProt P35367); test: Binding at histamine H1 receptor; details: read-out: hH1 Ki
T10 construct: expressed in transfected cells
From the text: as §2, §1

T6 sequence (P18825 whole entry): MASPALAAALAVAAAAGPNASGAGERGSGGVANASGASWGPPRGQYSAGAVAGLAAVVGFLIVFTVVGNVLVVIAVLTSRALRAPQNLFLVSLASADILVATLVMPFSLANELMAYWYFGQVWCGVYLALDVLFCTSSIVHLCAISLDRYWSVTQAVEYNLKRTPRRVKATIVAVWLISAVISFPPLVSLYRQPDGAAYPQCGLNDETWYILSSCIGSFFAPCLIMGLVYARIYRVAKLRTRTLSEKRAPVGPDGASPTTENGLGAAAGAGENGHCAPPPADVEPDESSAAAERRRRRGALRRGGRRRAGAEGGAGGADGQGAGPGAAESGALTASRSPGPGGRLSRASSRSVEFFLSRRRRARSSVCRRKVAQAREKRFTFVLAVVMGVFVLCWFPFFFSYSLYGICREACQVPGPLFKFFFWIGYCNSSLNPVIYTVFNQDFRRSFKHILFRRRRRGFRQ
T2 sequence (P28221 whole entry): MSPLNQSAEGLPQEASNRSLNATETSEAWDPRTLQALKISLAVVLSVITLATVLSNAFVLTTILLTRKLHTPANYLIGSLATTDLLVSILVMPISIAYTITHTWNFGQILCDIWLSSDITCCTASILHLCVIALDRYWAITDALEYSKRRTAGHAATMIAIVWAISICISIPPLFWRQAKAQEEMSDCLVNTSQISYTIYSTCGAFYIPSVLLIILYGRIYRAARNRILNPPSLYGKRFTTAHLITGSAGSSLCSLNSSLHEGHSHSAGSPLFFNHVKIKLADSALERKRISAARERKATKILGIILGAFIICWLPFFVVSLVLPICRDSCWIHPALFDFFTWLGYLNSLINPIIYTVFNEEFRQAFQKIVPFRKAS
T7 sequence (P21728 whole entry): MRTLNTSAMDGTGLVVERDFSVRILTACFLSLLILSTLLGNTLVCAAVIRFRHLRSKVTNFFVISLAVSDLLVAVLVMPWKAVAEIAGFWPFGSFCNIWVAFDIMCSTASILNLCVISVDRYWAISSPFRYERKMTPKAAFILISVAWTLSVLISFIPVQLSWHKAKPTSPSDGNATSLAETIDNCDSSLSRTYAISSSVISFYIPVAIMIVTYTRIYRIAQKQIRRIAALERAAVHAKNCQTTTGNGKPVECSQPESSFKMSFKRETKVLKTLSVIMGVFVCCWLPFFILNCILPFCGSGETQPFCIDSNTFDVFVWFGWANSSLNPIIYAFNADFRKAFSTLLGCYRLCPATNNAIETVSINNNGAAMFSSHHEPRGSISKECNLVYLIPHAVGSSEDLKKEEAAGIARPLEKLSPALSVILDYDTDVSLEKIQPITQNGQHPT
T3 sequence (P23977 whole entry): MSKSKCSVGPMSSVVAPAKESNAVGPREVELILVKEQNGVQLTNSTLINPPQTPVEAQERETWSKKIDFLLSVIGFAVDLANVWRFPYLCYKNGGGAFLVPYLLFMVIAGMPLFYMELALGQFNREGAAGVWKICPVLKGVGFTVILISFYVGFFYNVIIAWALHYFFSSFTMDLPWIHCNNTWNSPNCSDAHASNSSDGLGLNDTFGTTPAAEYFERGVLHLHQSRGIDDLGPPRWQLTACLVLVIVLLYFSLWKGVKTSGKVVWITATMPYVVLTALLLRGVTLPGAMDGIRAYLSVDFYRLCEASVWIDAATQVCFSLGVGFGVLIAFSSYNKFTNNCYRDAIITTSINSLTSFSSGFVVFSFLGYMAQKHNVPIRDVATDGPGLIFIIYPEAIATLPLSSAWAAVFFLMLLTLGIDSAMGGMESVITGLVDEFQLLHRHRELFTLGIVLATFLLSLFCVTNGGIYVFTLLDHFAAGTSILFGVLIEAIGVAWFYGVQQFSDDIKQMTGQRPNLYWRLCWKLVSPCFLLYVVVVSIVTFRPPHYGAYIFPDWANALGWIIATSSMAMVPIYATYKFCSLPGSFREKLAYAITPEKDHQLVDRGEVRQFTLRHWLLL
T10 sequence (P35367 whole entry): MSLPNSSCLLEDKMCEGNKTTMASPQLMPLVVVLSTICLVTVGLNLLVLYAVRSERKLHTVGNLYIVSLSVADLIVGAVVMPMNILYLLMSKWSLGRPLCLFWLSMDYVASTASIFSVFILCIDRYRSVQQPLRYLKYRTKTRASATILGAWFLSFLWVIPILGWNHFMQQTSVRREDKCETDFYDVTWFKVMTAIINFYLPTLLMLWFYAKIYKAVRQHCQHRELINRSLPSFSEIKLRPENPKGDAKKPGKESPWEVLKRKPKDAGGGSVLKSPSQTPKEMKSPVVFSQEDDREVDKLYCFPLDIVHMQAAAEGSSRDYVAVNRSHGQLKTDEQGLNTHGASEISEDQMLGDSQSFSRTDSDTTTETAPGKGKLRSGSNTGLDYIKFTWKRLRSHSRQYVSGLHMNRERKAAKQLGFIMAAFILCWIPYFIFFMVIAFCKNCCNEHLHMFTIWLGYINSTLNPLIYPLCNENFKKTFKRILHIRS
T5 sequence (P25100 whole entry): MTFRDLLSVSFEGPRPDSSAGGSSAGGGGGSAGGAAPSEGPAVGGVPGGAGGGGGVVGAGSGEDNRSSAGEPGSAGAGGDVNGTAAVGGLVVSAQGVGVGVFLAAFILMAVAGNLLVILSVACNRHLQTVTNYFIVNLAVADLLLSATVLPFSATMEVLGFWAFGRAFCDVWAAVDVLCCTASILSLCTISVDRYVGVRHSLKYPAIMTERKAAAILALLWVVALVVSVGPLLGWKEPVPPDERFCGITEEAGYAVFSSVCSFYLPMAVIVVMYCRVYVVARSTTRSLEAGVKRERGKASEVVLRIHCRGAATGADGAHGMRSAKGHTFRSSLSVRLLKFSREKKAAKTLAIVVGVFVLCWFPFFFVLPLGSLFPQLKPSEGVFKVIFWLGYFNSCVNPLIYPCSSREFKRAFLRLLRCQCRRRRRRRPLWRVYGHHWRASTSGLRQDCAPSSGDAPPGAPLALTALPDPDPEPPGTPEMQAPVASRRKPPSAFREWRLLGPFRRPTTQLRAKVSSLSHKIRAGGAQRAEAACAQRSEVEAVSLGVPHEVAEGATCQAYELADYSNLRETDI
T1 sequence (P21396 whole entry): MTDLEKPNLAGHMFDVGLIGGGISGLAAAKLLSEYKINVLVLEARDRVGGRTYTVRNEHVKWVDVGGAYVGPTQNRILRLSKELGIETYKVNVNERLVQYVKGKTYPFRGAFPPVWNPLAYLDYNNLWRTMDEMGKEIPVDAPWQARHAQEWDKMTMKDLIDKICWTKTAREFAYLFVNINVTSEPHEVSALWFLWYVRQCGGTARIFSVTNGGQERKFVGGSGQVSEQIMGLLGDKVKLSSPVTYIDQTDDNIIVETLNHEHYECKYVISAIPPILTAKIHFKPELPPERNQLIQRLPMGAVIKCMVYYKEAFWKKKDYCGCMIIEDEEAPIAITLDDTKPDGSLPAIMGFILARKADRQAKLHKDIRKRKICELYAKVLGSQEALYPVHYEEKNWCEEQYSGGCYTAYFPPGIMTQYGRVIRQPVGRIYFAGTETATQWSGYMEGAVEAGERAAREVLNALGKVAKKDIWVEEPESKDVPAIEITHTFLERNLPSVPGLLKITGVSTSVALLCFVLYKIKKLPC
T9 sequence (P21918 whole entry): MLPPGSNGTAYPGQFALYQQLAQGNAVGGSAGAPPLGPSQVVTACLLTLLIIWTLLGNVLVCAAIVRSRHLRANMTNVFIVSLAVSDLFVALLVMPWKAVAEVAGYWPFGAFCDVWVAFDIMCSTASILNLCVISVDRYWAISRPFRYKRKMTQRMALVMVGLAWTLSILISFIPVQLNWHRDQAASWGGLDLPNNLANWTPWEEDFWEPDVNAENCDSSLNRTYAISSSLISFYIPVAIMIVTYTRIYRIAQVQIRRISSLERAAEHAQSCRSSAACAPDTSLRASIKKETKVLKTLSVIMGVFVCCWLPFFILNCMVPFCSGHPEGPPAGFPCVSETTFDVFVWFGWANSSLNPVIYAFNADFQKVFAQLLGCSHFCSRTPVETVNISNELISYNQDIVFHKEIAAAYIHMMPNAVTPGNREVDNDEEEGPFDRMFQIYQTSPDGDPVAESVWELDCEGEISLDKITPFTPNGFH
T4 sequence (P35368 whole entry): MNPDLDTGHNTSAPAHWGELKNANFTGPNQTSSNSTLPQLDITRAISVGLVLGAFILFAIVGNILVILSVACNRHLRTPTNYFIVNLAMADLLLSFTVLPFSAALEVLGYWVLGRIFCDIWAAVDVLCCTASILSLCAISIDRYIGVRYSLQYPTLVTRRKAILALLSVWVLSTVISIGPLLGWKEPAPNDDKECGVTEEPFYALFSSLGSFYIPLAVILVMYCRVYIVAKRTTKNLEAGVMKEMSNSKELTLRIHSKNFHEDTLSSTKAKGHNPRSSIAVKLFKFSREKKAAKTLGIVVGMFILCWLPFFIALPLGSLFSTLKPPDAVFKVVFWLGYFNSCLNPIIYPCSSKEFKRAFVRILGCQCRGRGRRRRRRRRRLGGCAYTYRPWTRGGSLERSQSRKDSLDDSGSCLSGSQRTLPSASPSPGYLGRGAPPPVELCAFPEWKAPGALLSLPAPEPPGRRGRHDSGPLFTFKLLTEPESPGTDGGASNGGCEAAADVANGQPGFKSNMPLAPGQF
T8 sequence (P21917 whole entry): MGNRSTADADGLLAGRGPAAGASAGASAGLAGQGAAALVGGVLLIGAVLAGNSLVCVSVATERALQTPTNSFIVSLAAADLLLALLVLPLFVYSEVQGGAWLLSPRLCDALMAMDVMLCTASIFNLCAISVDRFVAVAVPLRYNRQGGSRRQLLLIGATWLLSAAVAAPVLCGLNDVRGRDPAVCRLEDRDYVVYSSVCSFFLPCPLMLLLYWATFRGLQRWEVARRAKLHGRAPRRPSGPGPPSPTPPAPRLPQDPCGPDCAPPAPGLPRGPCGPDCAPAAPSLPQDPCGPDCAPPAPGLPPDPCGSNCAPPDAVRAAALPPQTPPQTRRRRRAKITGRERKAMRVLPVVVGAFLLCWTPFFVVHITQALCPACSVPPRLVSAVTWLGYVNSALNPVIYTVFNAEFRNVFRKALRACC

O=C1C(=Nc2cccc(C(F)(F)F)c2)c2ccccc2N1c1ccccc1 [Example 92, 1-PHENYL-3-[[3-(TRIFLUOROMETHYL)PHENYL]IMINO]-1,3-DIHYDRO-2H-INDOL-2-ONE]
% INHIBITION [1]: 10% | Ki (human 5HT1D receptor): 32.1 µM | Ki (DA transporter): 17.8 µM | Ki [2]: > 50 µM | Ki [3]: 17.2 µM | Ki [4]: > 50 µM | Ki [5]: > 50 µM | Ki [6]: 41.4 µM | Ki [7]: 29.3 µM | Ki [8]: 39.9 µM
